# Results: patent publication US9241951B2, “Of gastrointestinal health, immunity and performance by dietary intervention” (BIOATLANTIS LTD, priority 2009, dated 2016)
# Experiments:
# Format in all cases: in vivo, pig
# [1] = tested on: IFN-γ; test: Cytokine gene expression after ex-vivo LPS tissue challenge of ileum and colon, Example 5; conditions: ileum, ex-vivo LPS challenge (10 μg/ml, 90 minutes)
# Text: (§1) 21 pigs with an initial weight of 17.9±2.2 Kg were assigned to one of the 3 dietary treatments: (T1) control; (T2) basal diet+300 ppm LAM; (T3) basal diet+600 ppm LAM. Experimental feeding continued for 21 days ad libitum. Diets were formulated to have similar digestible energy (DE) (14.4 MJ/Kg) and ileal digestible lysine (12.5 g/Kg).
# Ileal and colonic tissues were sampled from the same location as described for digesta samples. Excised tissues were emptied by dissecting them along the mesentery and rinsing them using sterile phosphate buffered saline (PBS) (Oxoid). Tissue sections 1 cm^3, which had been stripped of the overlying smooth muscle were cut from each tissue. Two sections from each tissue were placed in 1 ml of Dulbecco's Modified Eagle's Medium (DMEM) (Gibco), one in the presence of bacterial lipopolysaccharide (LPS) (Sigma Aldrich) at a concentration of 10 μg/ml. The other tissue sample was used as a control and incubated in sterile DMEM in the absence of LPS. Both challenged and unchallenged tissues were incubated at 37° C. for 90 minutes before being removed, blotted dry and weighed. Approximately 1-2 g of porcine ileum and colon tissues were cut into small pieces and collected in 15 ml of RNAlater® (Applied Biosystems, Foster City, Calif.). RNAlater® was removed before storing the samples at −80° C. until used for RNA extraction.
# (§2) Tissue samples for RNA extraction were removed from −86° C. and homogenised. 500 μl of lysis solution/2-ME was added to each sample and these were mechanically disrupted using one 5 mm stainless steel bead per sample. These were then placed in a Tissue Lyser (Qiagen) and lysates were homogenised for 3 mins and transferred to a GenElute Filtration Column (Sigma Aldrich) and RNA was extracted. 1 µg of total RNA was used for cDNA synthesis using oligo(dT)20 primer in a final reaction volume of 20 μl with Superscript™ III First-Strand synthesis system for reverse transcriptase-polymerase chain reaction (RT-PCR) (Invitrogen Life Technologies, Carlsbad, Calif.). At the last step of cDNA synthesis, treatment with E. coli RNase H (Invitrogen Corp.) was performed to digest the remaining RNA/mRNA template, resulting in the production of the single-stranded cDNA template for subsequent qRT-PCR reactions.
# All porcine primers for the cytokine genes interferon gamma (IFN-γ), interleukin-1α (IL-1α), IL-6, IL-8, IL-10, IL-17, tumour necrosis factor (TNF-α), the mucin genes (MUCs 1, 2, 4, 5AC, 12, 13 and 20) and three reference genes, β-actin (ACTB), Glyceraldehyde-3-phosphate dehydrogenase (GAPDH) and Peptidylprolyl isomerase A (PPIA), were designed using Primer Express™ (PE Applied Biosystems, Foster City, Calif.) and synthesised by MWG Biotech (Milton Keynes, UK). These reference genes were previously validated for use in porcine tissue and qPCR was then carried out on the cDNA using the ABI PRISM 7900HT Fast sequence detection system for 96-well plates (Applied Biosystems, Foster City, Calif.). All samples were prepared in duplicate using SYBR Green Fast PCR Master Mix (Applied Biosystems, Foster City, Calif.), cDNA as template and specific primers for the genes selected. For each reaction 5 μl cDNA, 1.2 μl (forward and reverse primer mix, 5 μM), 10 μl Fast SYBR Green PCR Master Mix (PE Applied Biosystems, Foster City, Calif.) was added and made up to a final volume of 20 μl. The two step PCR program was as follows: 95° C. for 10 minutes for 1 cycle followed by 95° C. for 15 seconds and 60° C. for 1 minute for 40 cycles. The raw Ct values for the reference genes were converted to relative quantities using the formula Q=E ^ΔCt where E is the PCR efficiency of the assay and ^ΔCt is the value calculated for the difference between the lowest Ct value for each gene minus the Ct value of the sample in question. The relative quantities of the endogenous controls were then analysed for stability in geNorm (Vandesompele et al., 2002). […]
# [2] = tested on: MUC2; test: Mucin gene expression in ileum and colon (qPCR), Example 5
# Procedure: as §1
# (§3) Ileal and colonic tissues was stabilised in RNAlater® solution and stored overnight at 4° C. The following day, RNAlater® was removed and samples were stored at −86° C. prior to RNA extraction.
# as §2
# (§4) All porcine primers for the cytokine genes interferon gamma (IFN-γ), interleukin-1α (IL-1α), IL-6, IL-8, IL-10, IL-17, tumour necrosis factor (TNF-α), the mucin genes (MUCs 1, 2, 4, 5AC, 12, 13 and 20) and three reference genes, β-actin (ACTB), Glyceraldehyde-3-phosphate dehydrogenase (GAPDH) and Peptidylprolyl isomerase A (PPIA), were designed using Primer Express™ (PE Applied Biosystems, Foster City, Calif.) and synthesised by MWG Biotech (Milton Keynes, UK). These reference genes were previously validated for use in porcine tissue and qPCR was then carried out on the cDNA using the ABI PRISM 7900HT Fast sequence detection system for 96-well plates (Applied Biosystems, Foster City, Calif.). All samples were prepared in duplicate using SYBR Green Fast PCR Master Mix (Applied Biosystems, Foster City, Calif.), cDNA as template and specific primers for the genes selected. For each reaction 5 μl cDNA, 1.2 μl (forward and reverse primer mix, 5 μM), 10 μl Fast SYBR Green PCR Master Mix (PE Applied Biosystems, Foster City, Calif.) was added and made up to a final volume of 20 μl. The two step PCR program was as follows: 95° C. for 10 minutes for 1 cycle followed by 95° C. for 15 seconds and 60° C. for 1 minute for 40 cycles. The raw Ct values for the reference genes were converted to relative quantities using the formula Q=E ^ΔCt where E is the PCR efficiency of the assay and ^ΔCt is the value calculated for the difference between the lowest Ct value for each gene minus the Ct value of the sample in question. The relative quantities of the endogenous controls were then analysed for stability in geNorm (Vandesompele et al., 2002). The stability ‘M’ value generated by the geNorm application for the selected endogenous controls (ACTB, GAPDH and PPIA) indicated their suitability as endogenous controls for these intestinal samples. The geometric mean of the relative quantities for ACTB, GAPDH and PPIA (normalisation factor) was then calculated using geNorm. The relative quantities of each target gene were divided by the normalisation factor (obtained in geNorm) for that sample to give the final normalised relative expression.
# [3] = tested on: MUC20; test: as above; conditions: LAM supplementation
# Procedure: as §1, §3, §2, §4
# [4] = tested on: MUC4; test: as above
# Procedure: as §1, §3, §2, §4
# [5] = tested on: MUC12; test: as above; conditions: LAM supplementation
# Procedure: as §1, §3, §2, §4
# [6] = tested on: MUC13; test: as above; conditions: LAM supplementation
# Procedure: as §1, §3, §2, §4
# [7] = tested on: MUC1; test: as above; conditions: colon; LAM supplementation
# Procedure: as §1, §3, §2, §4
substance,measurement,setting,value
laminarin,IFN-γ gene expression,[1],no effect
same,MUC2 expression,"[2]; colon, LAM 600 ppm",significantly increased
same,MUC2 expression,"[2]; ileum, LAM 300 ppm relative to control animals",increase
same,increased MUC2 expression,"[2]; ileum, LAM 600 ppm",not observed
same,MUC20 expression,[3]; colon,no effect
same,MUC20 expression,[3]; ileum,no effect
same,MUC4 expression,"[4]; colon, LAM 600 ppm",significantly increased
same,MUC4 expression,"[4]; ileum, LAM supplementation",no effect
same,MUC12 expression,[5]; colon,no effect
same,MUC12 expression,[5]; ileum,no effect
same,MUC13 expression,[6]; colon,no effect
same,MUC13 expression,[6]; ileum,no effect
same,MUC1 expression,[7],no effect
